Legend:
proteasome pathway = assay: Coupled in vitro transcription/translation of Insl6 using reticulocyte lysates with proteasome inhibition; assay type: biochemical; conditions: 5 μM, [35S] L-cysteine, FIG. 5E
Method: (§1) Based on the magnitude of difference in molecular weights between the two species (31-32 vs. 40 kDa), it was investigated whether Insl6 is ubiquinated. […] In contrast, the absence of the larger bands in a transcription/translation reaction using wheat germ extracts (FIG. 5C) supports the possibility that the Insl6 protein is ubiquinated. […] Briefly CHO cells stably expressing Insl6 were either exposed to vehicle (−) or 5 μM Clasto-Lactacystin-β-lactone (Clasto-L) (+) and cells harvested after 4 h (lanes A & B) or 24 h (lanes C & D). The cell lysates were Western blotted with anti-Insl6 antibody. To address te possibility that over-expression of Insl6 in the CHO cells may have facilitated aberrant ubiquination, the effect of inhibition of the proteasome pathway in a coupled in vitro transcriptiontranslation was investigated. The data obtained support the in vivo data showing that inhibition of the proteasome pathway results in decelerated rate of degradation of the Insl6 (FIG. 5E). Briefly, coupled in vitro transcription/translation of Insl6 using reticulocyte lysates performed in the presence of [^35S]

proteosome pathway = assay: Proteasome inhibition in CHO cells stably expressing recombinant Insl6, Western blot with anti-Insl6 antibody; assay type: cell-based, chinese hamster; conditions: 5 μM, cells harvested after 4 h or 24 h, FIG. 5D
Method: as §1

PKA = PKA (Homo sapiens, UniProt P17612); conditions: vendor Tocris; cited from earlier work
PKC = conditions: no effect on PKC; cited from earlier work
PKG = target: T1, PKG (Homo sapiens, UniProt Q13976); conditions: no effect on PKG; cited from earlier work
T1 sequence (Q13976 1-671): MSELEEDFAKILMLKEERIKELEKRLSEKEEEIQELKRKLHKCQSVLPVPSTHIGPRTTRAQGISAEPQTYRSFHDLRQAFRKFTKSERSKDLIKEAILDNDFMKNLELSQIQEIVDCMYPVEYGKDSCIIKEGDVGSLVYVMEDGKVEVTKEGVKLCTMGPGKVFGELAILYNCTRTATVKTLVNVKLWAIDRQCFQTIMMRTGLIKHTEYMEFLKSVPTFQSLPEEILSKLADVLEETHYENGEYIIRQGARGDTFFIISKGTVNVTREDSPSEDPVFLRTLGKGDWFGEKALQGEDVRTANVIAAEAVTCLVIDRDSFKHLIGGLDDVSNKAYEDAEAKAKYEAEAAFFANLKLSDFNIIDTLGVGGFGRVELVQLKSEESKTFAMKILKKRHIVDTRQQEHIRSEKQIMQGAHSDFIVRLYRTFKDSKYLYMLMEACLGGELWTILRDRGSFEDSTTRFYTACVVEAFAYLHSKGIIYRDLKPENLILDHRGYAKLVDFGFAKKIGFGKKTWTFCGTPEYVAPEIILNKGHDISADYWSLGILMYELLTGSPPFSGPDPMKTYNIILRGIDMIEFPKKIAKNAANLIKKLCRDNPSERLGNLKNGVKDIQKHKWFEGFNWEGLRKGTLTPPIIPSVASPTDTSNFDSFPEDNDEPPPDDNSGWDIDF

[1] = tested on: rat primary Sertoli cells; assay: Tyrosine phosphorylation profile of rat primary Sertoli cell proteins by Western blotting; assay type: cell-based; conditions: serum-deprived rat primary Sertoli cells, recombinant Insl6 in serum-free milieu
Description: Although Sertoli cell lines are useful tools for investigating Sertoli cell function, they are important differences between primary Sertoli cells and established Sertoli cell lines. For example, compared to primary Sertoli cells, MSC-1 cells are relatively deficient in the FSH receptor. […] For this purpose, we exposed serum-deprived rat primary Sertoli cells to recombinant Insl6 in a serum-free milieu and determined the tyrosine phosphorylation profile of cellular proteins by Western blotting. […] Based on the premise that Insl6 belongs to the insulin family of proteins, the following canonical signaling pathways involving Insl6 action on Sertoli cells were investigated:
Isolation and culture of primary rat Sertoli cells—Rat Sertoli cells were isolated in our laboratory using a standardized protocol. […] The purity of the Sertoli cell isolate yielded by this protocol is >95% as determined by phase microscopy and alkaline phosphatase staining.
(§2) Western Blot Analysis—Western blot analyses were carried out by established protocols known by those skilled in art. […] Equality of loading and efficiency of transfer were assessed by Ponceau staining of the nitrocellulose filters and protein concentration determined by Bradford's method (BioRad). […]

[2] = tested on: MSC-1 (mouse Sertoli cell line) cells; assay: Tyrosine phosphorylation of MSC-1 cellular proteins, anti-phosphotyrosine Western blot; assay type: cell-based; conditions: serum-deprived cells, ten minutes, serum-free conditioned medium from CHO cells expressing Insl6 vs non-transfected CHO; FIG. 11A
Description: The effect of Insl6 on Sertoli cells was confirmed by exposing serum-deprived MSC-1 (mouse Sertoli cell line) cells to serum-free conditioned medium containing recombinant Insl6 secreted by the CHO cells stably expressing epitope-tagged Ins16. The effect of Insl6 on the phosphorylation status of MSC-1 cellular proteins was initially investigated. […] Serum-deprived MSC-1 cells were exposed for ten minutes to serum-free conditioned medium from either CHO cells expressing Insl6 (lane A, FIG. 11A) or from non-transfected CHO cells (lane B, FIG. 11A). Cell lysates were subjected to reducing SDS-PAGE and blotted with antiphphosphotyrosine antibodies. The specific protein bands showing increased phosphorylation in response to Insl6 are indicated by the diamond and star symbols respectively.
as §2

MSC-1 cells = assay: Proliferation of MSC-1 cells, colorimetric viable cell assay; assay type: cell-based, mouse; conditions: serum-deprived cells, varying time periods, conditioned medium from CHO cells expressing Insl6 vs non-transfected CHO; FIG. 12
Method: To further investigate the significance of alteration in the tyrosine phosphorylation status of MSC-1 proteins, the effects of Insl6 on proliferation of MSC-1 were tested. For these experiments serum-deprived MSC-1 cells were exposed for varying time periods to serum-free conditioned medium from either CHO cells expressing Insl6 or from non-transfected CHO cells and the number of viable cells determined by a colorimetic assay (celltiter 96 Aqueous One Solution Cell Proliferation Assay; Promega, Madison, Wis., USA).

Molecule: CC(C)[C@H](O)[C@@]12NC(=O)[C@H](C)[C@@H]1OC2=O [Clasto-Lactacystin-β-lactone]
- effect on rate of degradation of Insl6 (proteasome pathway): decelerated rate of degradation of Insl6
- effect on half-life of Insl6 (proteosome pathway): prolongation of the half-life of Insl6

Molecule: CCCCCCOC(=O)[C@]1(O)C[C@@H]2O[C@@]1(C)n1c3ccccc3c3c4c(c5c6ccccc6n2c5c31)C(=O)NC4 [KT 5720]
- Ki (PKA): 60 nM
- Ki (PKC): > 2000 nM
- Ki (PKG): > 2000 nM

B1: Insl6: recombinant His-myc epitope-tagged murine Insl6, insulin family protein, secreted by stably expressing CHO cells (protein)
chain: EEESRPRKLCGRHLLIEVIKLCGQSDWSRFEMEEQSPMTQFFPHYSRKGKAFNPHPSSSAWRRFTNPVPAGVSQKKGTHTWEPQSLPDYQFEKTELLPKARVFSYHSGKPYVKSVQLQKKSTNKMNTFRSLFWGNHSQRKRRGFADKCCVIGCTKEEMAVACLPFVDF
modifications: left off: small tags and cut ends
- effect on tyrosine phosphorylation of cellular proteins [1]: alters the tyrosine phosphorylation status of cellular proteins
- effect on tyrosine phosphorylation of cellular proteins [2]: specific tyrosine phosphorylation of proteins of molecular weights of approximately 55 and 40 kDa
- effect on proliferation (MSC-1 cells): significantly inhibits the proliferation of MSC-1 in a time-dependent manner
